Values joined by “and” are separate entries in the source; they are usually repeats but may differ in a detail not shown here. Equal entries are not always repeated.
Test system: EAC solid tumor
Experiment: EAC solid tumor model in vivo
Set-up: species or system female Swiss albino mice
Details: for tumor growth inhibition (TGI): 5 mg/kg body weight, intravenously at alternate days, female Swiss albino mice; for CD8+ T cell population in vivo solid tumors: flow cytometry of tumor tissue post sacrifice
Procedure: Female Swiss albino mice of age 6 weeks (weight = 20 gm) were selected for the experiments. Animals were housed in animal facility room, Department of Zoology, University of Calcutta at 25 ± 2 °C, relative humidity of nearly 45 ± 5% with alternative 12 hours day/ night cycle with access of food and water. All the experiments were carried out as per guideline of the Committee for the Purpose of Control and Supervision of Experimental Animals (CPCSEA), Government of India (Registration No: 885/GO/Re/S/05/CPCSEA) and approved by the Institutional animal ethical committee (IAEC), University of Calcutta.
Ehrlich ascites carcinoma (EAC) cells were maintained in the ascetic form in female Swiss albino mice by intraperitoneal transplantation every 10th day on each mice. The ascetic fluid was drawn on 7th day on implantation according to previously described protocol. Isolated cells were diluted in sterile PBS. 2 × 10^6 cells were then implanted on thigh muscle of all the animals selected for experiment.
Female Swiss albino mice were divided into four groups (n = 6 each group). Post inoculation of the cells in thigh muscle on day 0 mice in their respective group was allowed to treat for 5 days on every alternate day at treatment of 5 mg/ kg body weight described below. All the mice were sacrificed on day 10.
Tumor tissues post sacrifice were digested in collagenase IV medium for 2 hours. The tissues were passed through wire mesh and single-cell strainer. Then the cells were washed in PBS, and immunophenotyping was performed, and cells were stained against APC-CD8 for finding infiltrated CD8 T cell populations by flow cytometry analysis.

SMILES	tumor growth inhibition (TGI)	CD8+ T cell population in vivo solid tumors
O=C(N/C(Cc1ccc(O)cc1)=N\O)c1n[nH]nc1-c1ccc(F)c(F)c1 [Compound 4i]	79–96%	induces CD8+ T cell population
NS(=O)(=O)NCCNC(=O)c1n[nH]nc1-c1ccc(F)c(F)c1 [Compound 4k]	79–96%	induces CD8+ T cell population
NC(=O)c1n[nH]nc1-c1ccc(F)c(F)c1 [Compound 3i]	79–96% and 96%	induces CD8+ T cell population

Source: PMC6895048, “4,5-Disubstituted 1,2,3-triazoles: Effective Inhibition of Indoleamine 2,3-Dioxygenase 1 Enzyme Regulates T cell Activity and Mitigates Tumor Growth” (Scientific Reports, 2019)
